The record followed here is patent US20260182611A1, “SWEETENER COMPOSITION AND TASTE-IMPROVING AGENT” (AJINOMOTO CO., INC., priority 2023, published 2026).

The assay in a line: Sensory evaluation of taste quality (sweetness intensity, bitter taste, lingering sweetness) of sweet solutions by trained panel. The arrangement: species or system human. The conditions noted are these: closer to PC sucrose. How it is done:
Rebaudioside A (MORITA KAGAKU KOGYO CO., LTD.) was dissolved in filtered water (ion exchange water) to prepare a 720 ppm aqueous solution of rebaudioside A, which was used as the negative control (NC) solution.
Sucrose (Mitsui DM Sugar Co., Ltd.) was dissolved in filtered water to prepare a 7.5% aqueous solution of sucrose, which was used as the positive control (PC) solution.
Sweet solutions prepared by adding each compound (naringenin (Penta Manufacturing Company), hesperetin (Xi'an International Healthcare Factory Co., Ltd.), pinocembrin (Shaanxi Ebony Biotech Co., Ltd.), γ-Glu-Val-Gly (AJINOMOTO CO., INC.), γ-Glu-Abu (AJINOMOTO CO., INC.), yeast extract containing γ-Glu-Abu, γ-nonalactone (Sigma-Aldrich Co. LLC.)) to NC solution at the concentrations indicated in Tables 1 to 5 were evaluated by sensory evaluation.
The yeast extract containing γ-Glu-Abu used in this example was a powdered yeast extract containing 7 to 13% (w/w) γ-Glu-Abu based on dry weight, which was produced in accordance with the method described in WO 2012/046731 or “Savorboost (product name) yeast extract containing γ-Glu-Abu (Asahi Group Foods, Ltd.)”. In Tables 1-4, the concentration of the yeast extract containing γ-Glu-Abu added is shown as a value converted to the amount of γ-Glu-Abu in the yeast extract.
The taste quality of the PC solution (7.5% sucrose) was scored as 10.0 points, the taste quality of the NC solution (720 ppm rebaudioside A) was scored as 1.0 points, and the sensory evaluation score for each sample was evaluated in 0.1 point increments. The taste quality was evaluated including sweetness intensity, intensity of bitter taste, and intensity of lingering sweetness. Samples with an evaluation score of 3 or higher were deemed to have a taste quality-improving effect. The evaluation was performed by a panel of four people who had received sensory evaluation training, and was conducted by blind evaluation. The average evaluation score of all panel members was calculated and addition effect was examined.
In addition, to compare with the addition effect of a single component, a theoretical additive point was calculated and compared with the evaluation score when the components were added in combination to examine the presence or absence of a synergistic effect.

Setting [1] is: 5 ppm of the flavonoid in combination with 0.3 ppm γ-Glu-Val-Gly.
[2] abbreviates: flavonoid in combination with γ-Glu-Abu or a yeast extract containing γ-Glu-Abu.

Turning to `O=C1C[C@@H](c2ccc(O)cc2)Oc2cc(O)cc(O)c21` [naringenin], the “taste quality of rebaudioside A” value runs as follows: under setting [1], “synergistically improved the taste quality of rebaudioside A”; under setting [2], “synergistically improved the taste quality of rebaudioside A”.

On to `O=C1CC(c2ccccc2)Oc2cc(O)cc(O)c21` (stereo not shown) [pinocembrin], for which the “taste quality of rebaudioside A” value is, setting by setting: under setting [1], “synergistically improved the taste quality of rebaudioside A”; (combination of pinocembrin and rebaudioside A alone) “improved the taste quality of rebaudioside A”; under setting [2], “synergistically improved the taste quality of rebaudioside A”.

In the case of `COc1ccc(C2CC(=O)c3c(O)cc(O)cc3O2)cc1O` (stereo not shown) [hesperetin], the “taste quality of rebaudioside A” value reads like this: under setting [1], “synergistically improved the taste quality of rebaudioside A”; under setting [2], “synergistically improved the taste quality of rebaudioside A”.
